Source: patent US20260242365A1, “USES OF CERTAIN 1,4-OXAZEPANE-2-CARBOXAMIDES AS DPP1 INHIBITORS” (Insmed Incorporated, priority 2023, published 2026)

Legend:
mouse DPP1 = molecular target: T1, mouse DPP1 (Mus musculus, UniProt P97821); assay: Mouse DPP1 Enzyme IC50 Assay; format: biochemical; conditions: active mouse DPP1 enzyme, H-Gly-Arg-AMC substrate
T1 construct: Test articles were applied to active mouse DPP1 enzyme; purchased R&D Systems
Experimental: Test articles were applied to active mouse DPP1 enzyme (R&D Systems; Minneapolis, MN) in Assay Buffer (50 mM MES pH 5.5, 50 mM NaCl, 5 mM DTT) in a total reaction volume of 125 μL. 25 μL of compound in Assay Buffer plus 5% DMSO was first added to 50 μL of active mouse DPP1 enzyme at a concentration of […] and allowed to pre-incubate for 10 minutes at 37° C. after which 50 μL of 1000 μM H-Gly-Arg-AMC substrate (Bachem; St. Torrance, CA) was added, giving final substrate concentration of 400 μM and a final DMSO concentration of 1%. Substrate cleavage was measured for 90 minutes at 37° C., with fluorescence at Excitation/Emission 350/450 nm measured every 5 minutes. DPP1 concentration was interpolated based on its activity relative to a standard curve of recombinant active mouse DPP1 enzyme. IC50 values for each compound were calculated via the XLFit (IDBS Version 5.3.1.3) Add-On to Microsoft Excel using the four parameter fit equation y= (A+ ((B−A)/(1+ ((C/x)^D)))), which appears as equation number 205 (4 Parameter Logistic Model or Sigmoidal Dose-Response Model) in XLFit. Default constraints were used for each Parameter. IC50 was defined as the compound concentration at which 50% of enzyme activity was inhibited when compared to the no-compound control.

human DPP1 = molecular target: T2, human DPP1 (Homo sapiens, UniProt P53634); assay: Human DPP1 Enzyme IC50 Assay; format: biochemical; conditions: activated human DPP1 enzyme, H-Gly-Arg-AMC substrate
T2 construct: was first proteolytically processed into its mature form using recombinant human cathepsin L; purchased R&D Systems
Experimental: Recombinant human DPP1 enzyme (R&D Systems; Minneapolis, MN) was first proteolytically processed into its mature form using recombinant human cathepsin L (R&D Systems) in a buffer consisting of 20 mM citric acid pH 4.5, 150 mM NaCl, 1 mM EDTA and 10 mM DTT. Alternatively, a crude lysate of HL-60 cells (ATCC; Manassas, VA) is used as a source of human DPP1 enzyme in the assay. Lysate was prepared in 1% Triton X-100 in PBS at a concentration of 20,000 live cells per μL of lysis buffer and centrifuged at 16,000×g for 10 minutes at 4° C., after which supernatant was collected and flash-frozen in liquid nitrogen.
Test articles were applied to activated human DPP1 enzyme in Assay Buffer (25 mM MES pH 6.0, 50 mM NaCl, 5 mM DTT) in a total reaction volume of 125 μL. 25 μL of compound in Assay Buffer plus 5% DMSO was first added to 50 μL of activated human DPP1 enzyme at a concentration of 1 ng/μL and allowed to pre-incubate for 10 minutes at 37° C. after which 50 μL of 1000 μM H-Gly-Arg-AMC substrate (Bachem; St. Torrance, CA) was added, giving final substrate concentration of 400 μM and a final DMSO concentration of 1%. Substrate cleavage was measured for 90 minutes at 37° C., with fluorescence at Excitation/Emission 350/450 nm measured every 5 minutes. DPP1 concentration was interpolated based on its activity relative to a standard curve of activated human recombinant DPP1 enzyme. IC50 values for each compound were calculated via the XLFit (IDBS Version 5.3.1.3) Add-On to Microsoft Excel using the four parameter fit equation y=(A+ ((B−A)/(1+ ((C/x)^D)))), which appears as equation number 205 (4 Parameter Logistic Model or Sigmoidal Dose-Response Model) in XLFit. Default constraints were used for each Parameter.

T1 sequence (P97821 25-134 limits assumed): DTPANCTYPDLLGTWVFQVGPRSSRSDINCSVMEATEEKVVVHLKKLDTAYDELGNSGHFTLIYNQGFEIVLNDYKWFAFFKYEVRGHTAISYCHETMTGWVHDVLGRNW
T1 sequence (P97821 231-393 limits assumed): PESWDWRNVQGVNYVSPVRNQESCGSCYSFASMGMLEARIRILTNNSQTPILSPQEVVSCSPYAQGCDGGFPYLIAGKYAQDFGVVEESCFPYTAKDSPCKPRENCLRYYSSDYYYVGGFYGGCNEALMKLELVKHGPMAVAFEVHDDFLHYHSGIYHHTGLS
T1 sequence (P97821 394-462 limits assumed): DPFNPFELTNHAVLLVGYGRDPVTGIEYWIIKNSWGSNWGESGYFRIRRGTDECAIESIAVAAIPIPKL
T2 sequence (P53634 25-134 limits assumed): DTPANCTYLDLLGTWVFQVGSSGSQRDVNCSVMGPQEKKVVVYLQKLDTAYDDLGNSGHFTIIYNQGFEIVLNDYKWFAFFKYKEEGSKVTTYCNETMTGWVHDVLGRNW
T2 sequence (P53634 231-394 limits assumed): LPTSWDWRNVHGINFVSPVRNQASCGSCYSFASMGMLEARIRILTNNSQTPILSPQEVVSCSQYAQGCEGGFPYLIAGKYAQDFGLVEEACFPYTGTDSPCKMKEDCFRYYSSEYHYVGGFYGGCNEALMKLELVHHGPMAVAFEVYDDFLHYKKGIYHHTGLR
T2 sequence (P53634 395-463 limits assumed): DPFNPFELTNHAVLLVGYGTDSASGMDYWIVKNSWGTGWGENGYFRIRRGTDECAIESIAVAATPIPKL

Row | IC50 (mouse DPP1) | IC50 (human DPP1) | SMILES
1 | 0.7 ± 0.2 nM | 1.03 ± 0.1 nM | COC1CNC[C@@H](C(=O)N[C@H](C#N)Cc2ccc(-c3ccc4oc(=O)n(C)c4c3)cc2)OC1 (mixture of isomers) [INSM-202, (6-rac)-(2S)—N-[(1S)-1-cyano-2-[4-(3-methyl-2-oxo-2,3-dihydro-1,3-benzoxazol-5-yl)phenyl]ethyl]-6-methoxy-1,4-oxazepane-2-carboxamide]
2 | 2.3 ± 0.4 nM | 2.03 ± 0.2 nM | Cn1c(=O)oc2ccc(-c3ccc(C[C@@H](C#N)NC(=O)[C@@H]4CNC[C@H](O)CO4)cc3)cc21 (single isomer, unassigned) [INSM-201, (2S,6S*)—N-[(1S)-1-cyano-2-[4-(3-methyl-2-oxo-2,3-dihydro-1,3-benzoxazol-5-yl)phenyl]ethyl]-6-hydroxy-1,4-oxazepane-2-carboxamide]
3 | 0.3 ± 0.1 nM | 0.6 ± 0.1 nM | COC1CNC[C@@H](C(=O)N[C@H](C#N)Cc2ccc(-c3ccc4oc(=O)n(C)c4c3)cc2)OC1 (single isomer, unassigned) [INSM-203, (2S,6R*)—N-[(1S)-1-cyano-2-[4-(3-methyl-2-oxo-2,3-dihydro-1,3-benzoxazol-5-yl)phenyl]ethyl]-6-methoxy-1,4-oxazepane-2-carboxamide]
